This note sets out measurements from patent US20090208543A1, “METHOD AND APPARATUS FOR APPLYING A PROTECTIVE ORAL CARE COMPOSITION” (Oral Health Clinical Services, priority 2008, published 2009).

This assay in a line: Tooth bleaching effectiveness of gels on extracted human teeth (chroma meter, Delta E). As to conditions: comparison of catalase inhibitors.

Method: Tooth bleaching effectiveness of the above gels was determined by using extracted human teeth. The teeth were freshly extracted, freed of all adherent tissues and stored in a sterile saline solution. The teeth were removed and the color was measured using a chroma meter commercially available from MINOLTA CR221. Readings were taken to record the L*, a*, and b* parameters. The teeth were then incubated in the various gels for 30 minutes. After this period, the gels were washed off and L*, a*, and b* parameters color re-measured. The change in color (Delta E) was then calculated using the CIE L*a*b* color difference equation:
Delta E=[(delta L*)^2+(delta a*)^2+(delta b*)^2]^0.5

Turning to `[F-].[Na+]` [sodium fluoride], the “effectiveness among the compositions comprising the inhibitors” value was “least effective”.
